{"source": "patent US20040186098A1", "about": "(Amgen Inc., priority 1997, published 2004)", "key": {"[1]": {"tested_on": "hair cells in rat organ of Corti explant", "assay": "Organ of Corti (cochlea) explant culture, hair cell survival after neomycin", "assay_type": "cell-based", "procedure": "The sensorineurotrophic compound stock solution was stored at room temperature and prepared fresh for each culture. The stock solution was diluted in 10 μl of 100% EtOH for every milligram of sensorineurotrophic compound in the stock solution (approximately 250 mM). This solution of 250 mM sensorineurotrophic compound in 100% EtOH was diluted in normal culture medium to working concentrations of 50000 nM, 5000 nM, 500 nM, 50 nM, 5000 pM, 500 pM, 50 pM, 10 pM, 5 pM, 1 pM, 0.5 pM, 0.1 pM, and 0.01 pM. […]\nOrgan of Corti explants were obtained from P3-P4 Wistar rats. […] The organ of Corti then was transferred to a 35-mm diameter Petri dish containing cold PBS supplemented with glucose and was ready to be cultured. […]\nTo identify and count hair cells in the organ of Corti, a direct immunostaining method was used to label the actin present naturally in the stereocilia bundles of the hair cells. […] The explants were observed under a Nikon Diaphot-300 inverted fluorescence microscope, using FITC filters and fluorescence optics.\nIn each cochlea, the number of hair cells was counted in 2-3 sections, 175 μm in length each. Only the sections in the middle turn of the cochlea were analyzed. […]"}, "[2]": {"tested_on": "hair cells", "assay": "Intramiddle ear neomycin-induced ototoxicity, compound given systemically (subcutaneous), hair cell loss", "assay_type": "in vivo, guinea pig", "details": "10 mg s.c. at day 0, 2 and 7", "procedure": "Twenty guinea pigs were treated either with sensorineurotrophic compound or vehicle prior to administration of the ototoxin. Ten of the guinea pigs were subcutaneously injected with freshly made sensorineurotrophic compound solution. On the day of injection, 100 mg of the sensorineurotrophic compound was dissolved in 1 ml of ethanol, then 20% of the Intralipids solution was added to make a final volume of 3 ml. The final sensorineurotrophic compound concentration was 10 mg/0.3 ml. Each animal was subcutaneously injected with 0.3 ml of the sensorineurotrophic compound solution at day 0, day 2 and day 7. Another 10 animals were subcutaneously injected with 0.3 ml of the vehicle (20% Intralipids), individually at day 0, day 2 and day 7.\nAt day 2, guinea pigs used in this study were administered neomycin or neomycin vehicle in the middle ear.\nAnimals were anesthetized with intramuscular injection of a mixture of ketamine (80 mg/kg) and xylazine (4 mg/kg). Through a post-auricular incision, the right bulla was identified. A hole was drilled to open the middle ear cavity (care was taken not to injure the tympanic annulus or ossicles). A piece of gelfoam (˜2 mm^3) was soaked with neomycin solution (fresh made at a concentration of 50 mg/ml) and was inserted into the round window niche. The remaining neomycin solution (˜100 μl) was then injected into the middle ear cavity. […]"}}}
{"smiles": "CCC(C)(C)C(=O)C(=O)N1CCC[C@H]1C(=O)OCCCc1cccnc1", "note": "[Compound I]", "values": [{"measurement": "surviving hair cells", "setting": "[1]; Compound I 0.05 pM together with 0.6 mM neomycin", "value": "31.8%±16.4"}, {"measurement": "loss of hair cells", "setting": "[1]; Compound I 0.05 pM together with neomycin, neomycin alone 95%", "value": "around 70%"}, {"measurement": "difference in the loss of hair cells between vehicle and treated animals", "setting": "[2]; 5 mg neomycin middle ear at day 2, day 16", "value": "~31", "unit": "%"}, {"measurement": "hair cell loss", "setting": "[2]; 5 mg neomycin middle ear, vehicle animals about 75%", "value": "about 45%"}]}
